This note sets out measurements from patent publication US20230322815A1, “NOVEL COMPOUNDS AND THERAPEUTIC USES THEREOF” (University of Huddersfield, priority 2020, published 2023).

One data set relates to HCT116 tumors. The experiment in a line: Chick embryo chorioallantoic membrane (CAM) assay, in ovo efficacy. The data set is classed as in vivo, human tumor cells on chick embryo CAM. The note with it: for doses giving statistically significant regression of tumor growth (mean tumor weight at E18): L2Zn3 70.5, 141, 282 μM, L2Cu3 75, 150, 300 μM. As to the method: FIG. 24. Activity of [L2Cu3]^6+ and [L2Zn3]^6+ against primary HCT116 tumors. The results presented represent the mean tumour weight ±SEM following treatment at 3 different doses of [L2Cu3]^6+ and [L2Zn3]^6+: L2Zn3 [1]=70.5 μM, L2Zn3 [2]=141 μM, L2Zn3 [3]=282 μM; L2Cu3 [1]=75 μM, L2Cu3[2]=150 μM, L2Cu3[3]=300 μM. SoC doxorubicin. Statistical analysis by one way ANOVA (*): 0.05≥p value >0.01; (**): 0.01≥p value >0.001; (***): 0.001≥p value; (****): 0.0001≥p value. Number per experimental group n=12-15.
FIG. 25. Evaluation of the effects of [L2Cu3]^6+ and [L2Zn3]^6+ on primary HCT116 metastasis to the lower CAM. Relative ALU expression (relative to chicken GAPDH) as a quantitive marker of metastasis of human cells to the lower CAM. Relative expression ±SEM. L2Zn3 [1]=70.5 μM, L2Zn3 [2]=141 μM, L2Zn3 [3]=282 μM; L2Cu3 [1]=75 μM, L2Cu3[2]=150 μM, L2Cu3[3]=300 μM. SoC doxorubicin. Number per experimental group n=7-8.
(§1) [L2Cu3]^6+ and [L2Zn3]^6+ were evaluated at three different doses for in ovo anti-cancer activity, toxicity and anti-metastatic activity against tumors initiated from three different human cancer cell line models (H460, HT29, HCT116), in the chick embryo chorioallantoic membrane (CAM) assay.
(§2) Each compound was provided to the contract research organisation (CRO) Inovotion (La Tronche, France) conducting the in ovo study, as a powder pre-weighed in single vials (2 equivalents of ligand, 3 equivalents of metal; and stored at room temperature). Before use, this was then dissolved in DMSO to 50 mM to generate a stock solution and further freshly diluted in RPM11640 or McCoys aqueous cell culture media for administration.
A standard of care (SoC) drug for the particular tumour type was tested concurrently as a comparative control for in vivo efficacy and toxicity evaluation. […]
(§3) On day E18, a 1 cm^2 portion of the lower CAM was collected (n=8 per group), stored at −20° C. and later processed to extract DNA. Samples were analysed for human genomic DNA (qPCR for Alu sequences) as a quantitative marker of tumor metastasis to the lower CAM.

A further data set concerns H460 tumors. Described as above. The data set is classed as in vivo, human tumor cells on chick embryo CAM. The note with it: for doses giving statistically significant regression of tumor growth (mean tumor weight at E18) / doses giving reduction of tumor growth comparable to SoC: L2Zn3 54, 108, 216 μM, L2Cu3 42, 84, 168 μM; for doses giving statistically significant regression of tumor growth (mean tumor weight at E18): 100 μl on tumor graft at E11, E13, E15, E17; for doses giving reduction of tumor growth comparable to SoC: SoC paclitaxel; for H460 metastatic load in the lower CAM (qPCR for Alu sequences): all three tested doses. How it is done:
FIG. 21. Activity of [L2Cu3]^6+ and [L2Zn3]^6+ against primary H460 tumors. The results presented represent the mean tumour weight±SEM following treatment at 3 different doses of [L2Cu3]^6+ and [L2Zn3]^6+: L2Zn3 [1]=54 μM, L2Zn3 [2]=108 μM, L2Zn3 [3]=216 μM; L2Cu3 [1]=42 μM, L2Cu3[2]=84 μM, L2Cu3[3]=168 μM. SoC paclitaxel. Statistical analysis by one way ANOVA (*): 0.05≥p value >0.01; (**): 0.01≥p value >0.001; (***): 0.001≥p value; (****): 0.0001≥p value. Number per experimental group n=10-13.
FIG. 22. Evaluation of the effects of [L2Cu3]^6+ and [L2Zn3]^6+ on primary H460 metastasis to the lower CAM. Relative ALU expression (relative to chicken GAPDH) as a quantitive marker of metastasis of human cells to the lower CAM. L2Zn3 [1]=54 μM, L2Zn3 [2]=108 μM, L2Zn3 [3]=216 μM; L2Cu3 [1]=42 μM, L2Cu3[2]=84 μM, L2Cu3[3]=168 μM. SoC paclitaxel. Relative expression ±SEM. Statistical analysis by one way ANOVA (*): 0.05≥p value >0.01; (**): 0.01≥p value >0.001; (***): 0.001≥p value; (****): 0.0001≥p value. Number per experimental group n=7-8.
as §1, §2
(§4) A standard of care (SoC) drug for the particular tumour type was tested concurrently as a comparative control for in vivo efficacy and toxicity evaluation. A solvent control served as a negative control for both SoC and experimental compounds.
(§5) 10^6 tumor cells (H460, HT29 or HCT116) were grafted onto the upper chorioallantoic membrane (CAM) of the developing chick embryo on embryonic day 9 (E9). Access to the upper CAM was through a small hole drilled through the eggshell of fertilized White Leghorn eggs (into the air sac) on E9 (15 eggs per experimental group).
(§6) 100 μl of freshly prepared experimental compound, vehicle control or standard-of-care (SoC) drug at their working concentrations were pipetted onto the tumor graft at E11, E13, E15 and E17. On day E18, the upper CAM (with tumor) was removed, washed by PBS buffer and then directly transferred in PFA (fixation for 48 hrs). After that, tumors were carefully cut away from normal CAM tissue and weighed.
as §3

The subject of the next data set is chick embryo. The experiment in a line: Embryonic toxicity, H460 in ovo study. The note with it: for embryo tolerability: all doses tested, no statistically significant difference to solvent control; for % Alive / % Dead / Alive (embryos at E18) / Dead (embryos at E18): H460 study. The format is in vivo, chick (White Leghorn). How it is done: as §5, §6
Embryonic viability was checked daily. The number of dead embryos was also counted on E18, to evaluate treatment-induced embryo toxicity.

The next data set relates to HT29 tumors. The data set is described as follows: Chick embryo chorioallantoic membrane (CAM) assay, in ovo efficacy. The data set is classed as in vivo, human tumor cells on chick embryo CAM. The note with it: for dose giving statistically significant regression of tumor growth (mean tumor weight at E18), comparable to SoC: L2Zn3 26.6, 53.2, 106.4 μM, L2Cu3 23.8, 65.7, 131.46 μM, SoC doxorubicin; for HT29 tumor cell metastasis to the lower CAM: any of the tested doses, data not shown. As to the method: FIG. 23. Activity of [L2Cu3]^6+ and [L2Zn3]^6+ against primary HT29 tumors. The results presented represent the mean tumour weight ±SEM following treatment at 3 different doses of [L2Cu3]^6+ and [L2Zn3]^6+: L2Zn3 [1]=26.6 μM, L2Zn3 [2]=53.2 μM, L2Zn3 [3]=106.4 μM; L2Cu3 [1]=23.8 μM, L2Cu3[2]=65.7 μM, L2Cu3[3]=131.46 μM. SoC doxorubicin. Statistical analysis by one way ANOVA (*): 0.05≥p value >0.01; (**): 0.01≥p value >0.001; (***): 0.001≥p value; (****): 0.0001≥p value. Number per experimental group n=10-14.
as §1, §2, §4, §5, §6, §3

Setting [1] is: dose [1]: L2Zn3 54 μM, L2Cu3 42 μM.
Where [2] appears, read: dose [2]: L2Zn3 108 μM, L2Cu3 84 μM.
Setting [3] is: dose [3]: L2Zn3 216 μM, L2Cu3 168 μM.

SMILES strings stand for the structures. Entries after “also recorded” stand apart in the source; their conditions may differ.

Regarding `[Cu+2].[Cu+2].[Cu+2].c1ccc(-c2csc(NCCN(CCNc3nc(-c4ccccn4)cs3)CCNc3nc(-c4ccccn4)cs3)n2)nc1.c1ccc(-c2csc(NCCN(CCNc3nc(-c4ccccn4)cs3)CCNc3nc(-c4ccccn4)cs3)n2)nc1` [[L2Cu3]^6+], in the data set with HCT116 tumors, the “doses giving statistically significant regression of tumor growth (mean tumor weight at E18)” value is given as “all three tested doses”. In the data set on H460 tumors, the “doses giving statistically significant regression of tumor growth (mean tumor weight at E18)” value is “the two highest tested doses”, the “doses giving reduction of tumor growth comparable to SoC” value was “the highest dose” and the “H460 metastatic load in the lower CAM (qPCR for Alu sequences)” value is listed as “no statistically significant metastatic regression”. Also, the embryo tolerability entry in the data set with chick embryo was “well tolerated”. In addition, in the data set on chick embryo (setting [1]), the “% Alive” value was found to be 85.71%, the “% Dead” value was found to be 14.29%, the “Alive (embryos at E18)” value is on record as 12 and the “Dead (embryos at E18)” value was 2. In the data set on chick embryo (setting [2]), the “% Alive” value came out at 92.86%, the “% Dead” value stood at 7.14%, the “Alive (embryos at E18)” value was determined as 13 and the “Dead (embryos at E18)” value is 1. For the same compound, in the data set on chick embryo (setting [3]), the “% Alive” value stood at 85.71%, the “% Dead” value is listed as 14.29%, the “Alive (embryos at E18)” value is given as 12 and the “Dead (embryos at E18)” value stood at 2. For the same compound, in the data set on HT29 tumors, the “dose giving statistically significant regression of tumor growth (mean tumor weight at E18), comparable to SoC” value was “highest tested dose” and the “HT29 tumor cell metastasis to the lower CAM” value is “no reduction”.

For `[Zn+2].[Zn+2].[Zn+2].c1ccc(-c2csc(NCCN(CCNc3nc(-c4ccccn4)cs3)CCNc3nc(-c4ccccn4)cs3)n2)nc1.c1ccc(-c2csc(NCCN(CCNc3nc(-c4ccccn4)cs3)CCNc3nc(-c4ccccn4)cs3)n2)nc1` [[L2Zn3]^6+], the “doses giving statistically significant regression of tumor growth (mean tumor weight at E18)” value with HCT116 tumors is given as “the highest two doses tested”. Also, in the data set on HCT116 tumors (all three doses, comparable to SoC doxorubicin), the “HCT116 metastatic load in the lower CAM (qPCR for Alu sequences)” value is on record as “Decreases in HCT116 metastatic load; also recorded: strong regression tendency”. Also, in the data set with H460 tumors, the “doses giving statistically significant regression of tumor growth (mean tumor weight at E18)” value is reported as “all three tested doses”, the “doses giving reduction of tumor growth comparable to SoC” value is reported as “all three tested doses” and the “H460 metastatic load in the lower CAM (qPCR for Alu sequences)” value was “Statistically significant decreases”. Also, the embryo tolerability result with chick embryo is “well tolerated”. For the same compound, in the data set with chick embryo (setting [1]), the “% Alive” value came to 92.86%, the “% Dead” value is on record as 7.14%, the “Alive (embryos at E18)” value turned out to be 13 and the “Dead (embryos at E18)” value stood at 1. Besides, in the data set with chick embryo (setting [2]), the “% Alive” value stood at 76.92%, the “% Dead” value worked out at 23.08%, the “Alive (embryos at E18)” value amounted to 10 and the “Dead (embryos at E18)” value was 3. In the data set on chick embryo (setting [3]), the “% Alive” value came out at 90.91%, the “% Dead” value is listed as 9.09%, the “Alive (embryos at E18)” value is reported as 10 and the “Dead (embryos at E18)” value was 1. In the data set with HT29 tumors, the “dose giving statistically significant regression of tumor growth (mean tumor weight at E18), comparable to SoC” value is “highest tested dose” and the “HT29 tumor cell metastasis to the lower CAM” value is recorded as “no reduction”.
